In ChEMBL document CHEMBL5346964, “Discovery of LNP1892: A Precision Calcimimetic for the Treatment of Secondary Hyperparathyroidism” (J Med Chem, 2023):

Columns and labels:
[1] = AUClast in Sprague-Dawley rat at 1 mg/kg, iv measured upto 24 hrs by LC-MS/MS analysis; assay type: ADME, organism-based; design: dose 1 mg/kg, time < 24 hrs, route iv; details: in vivo
Rattus norvegicus [2] = test: Acute effect on parathyroid hormone in overnight fasted adenine diet-induced chronic kidney disease Wistar rat model assessed as reduction in plasma PTH level at 3 mg/kg, po measured after 4 hrs of post treatment by sandwich ELISA analysis; assay type: functional; design: scale not given: the % may be the effect or the level left
[3] = biological target: T1, 5-hydroxytryptamine receptor 1A (Homo sapiens) (UniProt P08908); test: Inhibition of human recombinant 5-HT1A receptor at 10 uM relative to control
T1 sequence (whole entry): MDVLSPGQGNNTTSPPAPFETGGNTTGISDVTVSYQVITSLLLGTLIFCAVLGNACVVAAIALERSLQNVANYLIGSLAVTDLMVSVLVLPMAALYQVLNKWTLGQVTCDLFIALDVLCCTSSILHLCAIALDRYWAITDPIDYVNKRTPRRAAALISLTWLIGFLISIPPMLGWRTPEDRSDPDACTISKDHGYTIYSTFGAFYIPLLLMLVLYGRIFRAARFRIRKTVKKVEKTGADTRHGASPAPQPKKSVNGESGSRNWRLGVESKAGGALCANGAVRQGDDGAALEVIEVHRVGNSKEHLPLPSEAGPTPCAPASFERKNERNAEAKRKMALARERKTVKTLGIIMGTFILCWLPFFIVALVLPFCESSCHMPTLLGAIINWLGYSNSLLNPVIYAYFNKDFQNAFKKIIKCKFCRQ

Rattus norvegicus [4] = test: Subchronic effect on parathyroid hormone in overnight fasted adenine diet-induced chronic kidney disease Wistar rat model plasma assessed as reduction in plasma PTH level at 0.1 mg/kg, po qd measured after 27 days of post treatment by sandwich ELISA analysis; assay type: functional; design: scale not given: the % may be the effect or the level left; details: time 27 day
[5] = Tmax in Beagle dog at 5 mg/kg, po measured upto 24 hrs by LC/MS-MS analysis; assay type: ADME, organism-based, Canis lupus familiaris; details: in vivo
[6] = Cmax in human at 25 mg/kg, po administered as multiple dose on day 8; assay type: ADME, organism-based; design: dose 25 mg/kg, route po; details: in vivo
[7] = AUC in BALB/c mouse at 10 mg/kg, po measured upto 24 hrs by LC/MS-MS analysis; assay type: ADME, organism-based; design: time < 24 hrs, dose 10 mg/kg, route po; details: in vivo
[8] = Tmax in Sprague-Dawley rat at 1 mg/kg, iv measured upto 24 hrs by LC-MS/MS analysis; assay type: ADME, organism-based; details: in vivo
[9] = Volume of distribution at steady state in cynomolgus monkey at 1 mg/kg, iv measured upto 24 hrs by LC/MS-MS analysis; assay type: ADME, organism-based, Macaca fascicularis; details: in vivo, read-out: Vdss
[10] = Cmax in Sprague-Dawley rat at 100 mg/kg; assay type: ADME, organism-based; design: dose 100 mg/kg; details: in vivo
[11] = Drug excretion in rat assessed as drug recovery in urine at 10 mg/kg, po; assay type: ADME, organism-based; details: read-out: Drug recovery
[12] = Metabolic stability in dog liver cytosol measured upto 60 mins by LC-MS/MS method; assay type: ADME, subcellular, Canis lupus familiaris; details: read-out: Stability
[13] = Metabolic stability in rat liver S9 fraction measured upto 60 mins by LC-MS/MS method; assay type: ADME, subcellular; details: read-out: Stability
[14] = Kinetic solubility of compound upto 500 uM in 0.1N NaOH measured after 16 hrs under shaking condition by UV-visible method; assay type: physicochemical; details: read-out: Kinetic_solubility
[15] = Clearance in Sprague-Dawley rat at 1 mg/kg, iv measured upto 24 hrs by LC-MS/MS analysis; assay type: ADME, organism-based; details: in vivo
[16] = Kinetic solubility of compound upto 500 uM at pH 7.4 measured after 16 hrs under shaking condition by UV-visible method; assay type: physicochemical; details: buffer, read-out: Kinetic_solubility
[17] = Chemical stability of the compound in SIF measured after 0.5 to 4 hrs; assay type: physicochemical; details: simulated gi fluid; time 0.5-4 hrs
CYP2C9 = CYP2C9 (Homo sapiens, UniProt P11712); test: Inhibition of CYP2C9 in human liver microsomes at 10 uM preincubated for 5 mins followed by NADPH addition by LC-MS/MS analysis relative to control; assay type: ADME, Microsome
Chain of CYP2C9 (P11712 whole entry): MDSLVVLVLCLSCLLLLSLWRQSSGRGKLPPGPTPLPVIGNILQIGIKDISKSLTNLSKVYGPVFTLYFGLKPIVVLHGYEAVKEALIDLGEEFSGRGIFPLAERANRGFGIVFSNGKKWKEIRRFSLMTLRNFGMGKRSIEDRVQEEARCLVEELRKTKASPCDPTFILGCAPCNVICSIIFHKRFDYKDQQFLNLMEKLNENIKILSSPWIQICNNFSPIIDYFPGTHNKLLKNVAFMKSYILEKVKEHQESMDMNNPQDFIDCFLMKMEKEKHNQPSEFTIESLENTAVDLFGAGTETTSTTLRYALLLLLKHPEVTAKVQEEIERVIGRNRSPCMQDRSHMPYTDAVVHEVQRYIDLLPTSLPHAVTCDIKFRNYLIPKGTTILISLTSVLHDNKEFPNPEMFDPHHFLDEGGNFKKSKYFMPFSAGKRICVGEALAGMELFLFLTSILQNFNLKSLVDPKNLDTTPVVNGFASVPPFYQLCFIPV

[18] = Microsomal stability in human liver microsomes assessed as parent compound remaining at 1 uM measured upto 30 mins in presence of NADPH by LC-MS/MS analysis; assay type: ADME, Microsome; details: liver microsomes, read-out: Stability
CYP2E1 = CYP2E1 (Homo sapiens, UniProt P05181); test: Inhibition of CYP2E1 in human liver microsomes at 10 uM preincubated for 5 mins followed by NADPH addition by LC-MS/MS analysis relative to control; assay type: ADME, Microsome
Chain of CYP2E1 (P05181 whole entry): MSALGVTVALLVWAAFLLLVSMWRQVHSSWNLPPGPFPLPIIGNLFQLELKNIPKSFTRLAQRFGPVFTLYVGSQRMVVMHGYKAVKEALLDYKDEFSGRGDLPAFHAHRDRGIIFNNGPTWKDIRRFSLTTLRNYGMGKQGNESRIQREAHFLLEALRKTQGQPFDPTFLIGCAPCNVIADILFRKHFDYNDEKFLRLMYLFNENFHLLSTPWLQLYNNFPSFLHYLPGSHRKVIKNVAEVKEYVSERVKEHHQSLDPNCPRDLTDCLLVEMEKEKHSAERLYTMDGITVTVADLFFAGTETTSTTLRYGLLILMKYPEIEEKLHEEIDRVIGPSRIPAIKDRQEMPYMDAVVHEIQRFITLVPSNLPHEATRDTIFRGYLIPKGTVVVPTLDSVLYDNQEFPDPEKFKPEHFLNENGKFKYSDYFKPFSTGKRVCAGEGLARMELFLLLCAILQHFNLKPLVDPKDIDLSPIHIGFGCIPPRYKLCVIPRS

[19] = Tmax in Sprague-Dawley rat at 10 mg/kg, po measured upto 24 hrs by LC/MS-MS analysis; assay type: ADME, organism-based; details: in vivo
Rattus norvegicus [20] = test: Subchronic effect on parathyroid hormone in overnight fasted adenine diet-induced chronic kidney disease Wistar rat model plasma assessed as reduction in plasma PTH level at 1 mg/kg, po qd measured after 27 days of post treatment by sandwich ELISA analysis; assay type: functional; design: scale not given: the % may be the effect or the level left; details: time 27 day
[21] = Tmax in Sprague-Dawley rat at 10 mg/kg; assay type: ADME, organism-based; details: in vivo
[22] = Cmax in mouse at 50 mg/kg per day, po via gavage administered for 13 weeks; assay type: ADME, organism-based; design: time 13 weeks, dose 50 mg/kg, route po; details: in vivo
[23] = Oral bioavailability in Sprague-Dawley rat at 10 mg/kg administered as solution measured upto 24 hrs by LC-MS/MS analysis; assay type: ADME, organism-based; details: in vivo
[24] = Cmax in rat at 50 mg/kg per day, po via gavage administered for 2 weeks; assay type: ADME, organism-based; design: dose 50 mg/kg, time 2 weeks, route po; details: in vivo
[25] = Stability in human plasma measured up to 4 hrs by LC-MS/MS method; assay type: ADME, cell-free; details: read-out: Stability
[26] = AUC(0 to t) in human at 10 mg/kg, po administered as single dose; assay type: ADME, organism-based; design: dose 10 mg/kg, route po; details: in vivo
[27] = AUC in Beagle dog at 5 mg/kg, po measured upto 24 hrs by LC/MS-MS analysis; assay type: ADME, organism-based, Canis lupus familiaris; design: dose 5 mg/kg, time < 24 hrs, route po; details: in vivo
[28] = AUC(0 to 24 hrs) in Sprague-Dawley rat at 10 mg/kg; assay type: ADME, organism-based; design: dose 10 mg/kg; details: in vivo
[29] = Volume of distribution at steady state in Sprague-Dawley rat at 10 mg/kg, po administered as solution measured upto 24 hrs by LC-MS/MS analysis; assay type: ADME, organism-based; details: in vivo
[30] = Cmax in Sprague-Dawley rat at 10 mg/kg, po measured upto 24 hrs by LC/MS-MS analysis; assay type: ADME, organism-based; design: dose 10 mg/kg, time < 24 hrs, route po; details: in vivo
[31] = Kinetic solubility of compound in SGF upto 500 uM measured after 16 hrs under shaking condition by UV-visible method; assay type: physicochemical; details: read-out: Kinetic_solubility
[32] = Drug excretion in rat assessed as drug recovery in feces at 10 mg/kg, po; assay type: ADME, organism-based; details: faeces, read-out: Drug recovery
[33] = Chemical stability of the compound in FeSSIF measured after 0.5 to 4 hrs; assay type: physicochemical; details: simulated gi fluid; time 0.5-4 hrs
[34] = AUC(0 to t) in rat at 25 mg/kg per day, po via gavage administered for 13 weeks; assay type: ADME, organism-based; design: dose 25 mg/kg, time 13 weeks, route po; details: in vivo
[35] = Drug excretion in BALB/c mouse assessed as drug recovery in feces at 1 mg/kg, iv; assay type: ADME, organism-based; details: faeces, read-out: Drug recovery
[36] = Chemical stability of the compound at pH 9 measured after 0.5 to 4 hrs; assay type: physicochemical; details: buffer, time 0.5-4 hrs
[37] = Oral bioavailability in Beagle dog at 5 mg/kg measured upto 24 hrs by LC/MS-MS analysis; assay type: ADME, organism-based, Canis lupus familiaris; details: in vivo
[38] = Cmax in Beagle dog at 5 mg/kg, po measured upto 24 hrs by LC/MS-MS analysis; assay type: ADME, organism-based, Canis lupus familiaris; design: dose 5 mg/kg, time < 24 hrs, route po; details: in vivo
[39] = Plasma clearance in BALB/c mouse at 1 mg/kg, iv measured upto 24 hrs by LC/MS-MS analysis; assay type: ADME, organism-based

SMILES: Cc1ccc([C@@H]2C[C@H](CN[C@H](C)c3cccc4ccccc34)Oc3ccccc32)cc1C(=O)O.Cl
- AUC(0-t) at 24 h [1]: 7 µM·h
- Activity (Rattus norvegicus [2]): 89%
- inhibition [3]: > 50%
- Activity (Rattus norvegicus [4]): 62%
- Tmax [5]: 42 min
- Cmax [6]: 463 ng/mL
- AUC at 24 h [7]: 171 µM·h
- Tmax [8]: 4.8 min
- Vd [9]: 20 L/kg
- Cmax [10]: 53 µM
- dose excreted [11]: < 1%
- remaining at 1 h [12]: > 80%
- remaining at 1 h [13]: > 80%
- solubility kinetic at 16 h, 500 µM [14]: > 300 µM
- clearance [15]: 4 mL/min/kg
- solubility kinetic at 16 h, 500 µM [16]: > 200 µM
- Stability [17]: Stable
- inhibition at 10 µM (CYP2C9): 0%
- remaining at 0.5 h, 1 µM [18]: 73%
- inhibition at 10 µM (CYP2E1): 0%
- Tmax [19]: 36 min
- Activity (Rattus norvegicus [20]): 83%
- Tmax [21]: 60 min
- Cmax [22]: 34800 ng/mL
- bioavailability [23]: 99%
- Cmax [24]: 7170 ng/mL
- remaining at 4 h [25]: > 80%
- AUC(0-t) [26]: 1840 ng·h/mL
- AUC at 24 h [27]: 63 µM·h
- AUC(0-t) [28]: 23 µM·h
- Vdss [29]: 0.6 L/kg
- Cmax [30]: 14 µM
- solubility kinetic at 16 h, 500 µM [31]: > 200 µM
- dose excreted [32]: 3%
- Stability [33]: Stable
- AUC(0-t) at 2184 h [34]: 98900 ng·h/mL
- dose excreted [35]: 27%
- Stability [36]: Stable
- bioavailability [37]: 79%
- Cmax [38]: 11 µM
- clearance [39]: 2.6 mL/min/kg
